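Where inhibition never reached the appropriate level, the endpoint shown equals the highest concentration tested. Otherwise, values were interpolated linearly from a five-concentration, 48-hour dose response in 96-well plates. Here, GI50 denotes the concentration required for 50% inhibition of growth.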 Active and inactive are the calls of the source. No stated cut-off is given here; in the data, active = GI50 up to about 1.1 µM and inactive = higher. Some results are limits rather than exact numbers.

The values that follow come from ChEMBL document CHEMBL1201862, “PubChem BioAssay data set” (2004).

Among the test systems are SK-MEL-2; U-251; SK-OV-3; A498; LOX IMVI; Hs-578T; HOP-62; T47D; SN12C; MCF7; SW-620; A549; EKVX; SNB-75; NCI/ADR-RES; HT-29; SK-MEL-28; CCRF-CEM; MOLT-4; BT-549.
Holding throughout (test): NCI anticancer screen, dose series, 48 h

Take `N#CC1=C(N)OC(c2cccc([N+](=O)[O-])c2)C1(C#N)C#N` (configuration not stated): the GI50 in the test on SK-MEL-2 is 21.3 µM (inactive); in the test with U-251, 39.9 µM (inactive); in the test with SK-OV-3, 70.3 µM (inactive); in the test with A498, 19.7 µM (inactive); in the test with LOX IMVI, 15.1 µM (inactive); in the test with Hs-578T, 84.3 µM (inactive). Besides, the GI50 in the test with HOP-62 was 18.9 µM (inactive); in the test on T47D it was 17.4 µM (inactive); with SN12C, 33.2 µM (inactive); with MCF7, 20.8 µM (inactive); in the test with SW-620 it was > 10 µM (inactive); in the test on A549 it was 34.8 µM (inactive). Besides, the GI50 in the test with EKVX is 22.1 µM (inactive); in the test with SNB-75, 0.78 µM (active); in the test on NCI/ADR-RES it was 34.3 µM (inactive); with HT-29, 19.1 µM (inactive).
On to `CNC(=O)OCc1cnc([N+](=O)[O-])n1C`, for which the GI50 in the test on SK-MEL-2, in the test with SK-MEL-28, in the test on U-251, in the test with A498, in the test with LOX IMVI and with Hs-578T was > 100 µM (inactive) each time. Also, the GI50 with CCRF-CEM, in the test on HOP-62, in the test with SN12C, with MCF7, with MOLT-4 and in the test with SW-620 was > 100 µM (inactive) in each case. The GI50 in the test on A549, in the test on EKVX, with SNB-75, in the test on NCI/ADR-RES, with BT-549 and in the test on HT-29 was > 100 µM (inactive) in each case.
As for `O=C1/C(=C/c2ccco2)N=C2Sc3c([nH]cnc3=O)N12`, the GI50 with SK-MEL-2, with SK-MEL-28, with U-251, in the test on SK-OV-3, with A498 and in the test on LOX IMVI was > 100 µM (inactive) in each case. Moreover, the GI50 in the test with Hs-578T, in the test on CCRF-CEM, in the test with HOP-62, in the test on T47D, in the test with SN12C and in the test on MCF7 was > 100 µM (inactive) throughout. For the same compound, the GI50 in the test with MOLT-4, with SW-620, in the test on A549, with EKVX, in the test on SNB-75 and with NCI/ADR-RES was > 100 µM (inactive) each time. Moreover, in the test with HT-29, the GI50 was > 100 µM (inactive).
In the case of `C=CCC(C)C12CCNC(Cc3ccc(O)cc31)C2C` (configuration not stated), the GI50 was > 100 µM (inactive) in the test with SK-MEL-28; > 100 µM (inactive) in the test with U-251; > 100 µM (inactive) with SK-OV-3; 43.6 µM (inactive) in the test on A498; > 100 µM (inactive) in the test on LOX IMVI; 82.8 µM (inactive) in the test on Hs-578T. In addition, the GI50 in the test on CCRF-CEM is > 100 µM (inactive); with HOP-62 it was > 100 µM (inactive); in the test on T47D, > 100 µM (inactive); in the test on SN12C it was > 100 µM (inactive); in the test with MCF7, > 100 µM (inactive); in the test on MOLT-4 it was 84.5 µM (inactive). Further, the GI50 in the test on SW-620 was > 100 µM (inactive); in the test on A549 it was > 100 µM (inactive); in the test on EKVX, > 100 µM (inactive); with SNB-75, > 100 µM (inactive); in the test with NCI/ADR-RES, > 100 µM (inactive); in the test with HT-29, 79.1 µM (inactive).
For the compound `CC(=O)/N=C1/N(/C=C2\C(=O)Oc3ccccc3C2=O)C(=O)/C(=C/c2ccccc2Cl)N1C`, the GI50 in the test with SK-MEL-2 is > 100 µM (inactive); with SK-MEL-28, > 100 µM (inactive); with U-251, > 100 µM (inactive); in the test on SK-OV-3, > 100 µM (inactive); in the test with A498, 0.564 µM (active); with LOX IMVI, > 100 µM (inactive). Also, the GI50 is 4.29 µM (inactive) in the test on Hs-578T; > 100 µM (inactive) in the test with CCRF-CEM; > 100 µM (inactive) in the test on HOP-62; > 100 µM (inactive) in the test with T47D; > 100 µM (inactive) in the test with SN12C; > 100 µM (inactive) with MCF7. The GI50 is > 100 µM (inactive) in the test with MOLT-4; > 100 µM (inactive) in the test on SW-620; > 100 µM (inactive) in the test on A549; 84.9 µM (inactive) in the test with EKVX; 22.2 µM (inactive) in the test on SNB-75; 84.9 µM (inactive) in the test on NCI/ADR-RES. The GI50 with HT-29 was > 100 µM (inactive).
Consider `Cc1cc(O)c(C(O)c2ccccn2)cc1O` (configuration not stated), for which the GI50 with SK-MEL-28 was 18.7 µM (inactive); in the test on U-251, 36.7 µM (inactive); in the test with LOX IMVI, 16.5 µM (inactive); in the test with Hs-578T, 45.8 µM (inactive); with CCRF-CEM it was 3.21 µM (inactive); in the test on HOP-62 it was 89.1 µM (inactive). Further, the GI50 in the test on T47D is > 10 µM (inactive); in the test on SN12C, 18.7 µM (inactive); with MCF7, 18.1 µM (inactive); in the test on MOLT-4, 13.6 µM (inactive); with SW-620 it was 21.1 µM (inactive); in the test with A549, 81.1 µM (inactive). Further, the GI50 is 18.2 µM (inactive) in the test on EKVX, 14.7 µM (inactive) in the test with SNB-75, 27.5 µM (inactive) in the test on NCI/ADR-RES and 21.4 µM (inactive) in the test with HT-29.
In the case of `CC(O)c1c2c(cc3c1CC1(C3)Cc3cc4c(c(C(C)O)c3C1)CCC4)CCC2` (configuration not stated), the GI50 in the test with SK-MEL-2 was 26.9 µM (inactive); in the test on U-251, 14.1 µM (inactive); in the test with SK-OV-3, 23.2 µM (inactive); with A498, 14.9 µM (inactive); in the test on LOX IMVI, 17.5 µM (inactive); in the test on Hs-578T it was 22.5 µM (inactive). In addition, the GI50 was 5.82 µM (inactive) with CCRF-CEM; 20.7 µM (inactive) in the test on HOP-62; 11.9 µM (inactive) in the test on T47D; 16.7 µM (inactive) with SN12C; 11.8 µM (inactive) in the test with MCF7; 4.13 µM (inactive) in the test with MOLT-4. In addition, the GI50 was 13.6 µM (inactive) in the test on A549, 27.9 µM (inactive) in the test with EKVX, 19.1 µM (inactive) in the test on NCI/ADR-RES and 12.9 µM (inactive) with HT-29.
`COc1cc2c(cc1OC)CC(=O)c1cc(OC)c(OC)cc1/C=C\2`: the GI50 in the test on SK-MEL-2, with SK-MEL-28, with U-251, in the test on SK-OV-3, with A498 and in the test with LOX IMVI was > 12.5 µM (inactive) throughout. For the same compound, the GI50 in the test with Hs-578T was > 12.5 µM (inactive); with CCRF-CEM, > 12.5 µM (inactive); in the test on HOP-62 it was > 12.5 µM (inactive); in the test with SN12C, > 12.5 µM (inactive); in the test on MCF7 it was > 12.5 µM (inactive); in the test on MOLT-4 it was 9.93 µM (inactive). For the same compound, the GI50 in the test with SW-620 was 6.37 µM (inactive); with A549, > 12.5 µM (inactive); with EKVX it was > 12.5 µM (inactive); in the test on SNB-75, 4.83 µM (inactive); in the test with NCI/ADR-RES, > 12.5 µM (inactive); in the test on HT-29, 5.79 µM (inactive).
For the compound `O=c1cc(NCC2CCCCC2)[nH]c(=O)[nH]1`, the GI50 in the test on SK-MEL-28, with U-251, with A498, in the test with LOX IMVI, in the test with Hs-578T and in the test with CCRF-CEM was > 100 µM (inactive) throughout. For the same compound, the GI50 with HOP-62, with SN12C, in the test with MCF7, in the test with SW-620, in the test with A549 and with EKVX was > 100 µM (inactive) in each case. For the same compound, the GI50 in the test on SNB-75, in the test on NCI/ADR-RES and with BT-549 was > 100 µM (inactive) throughout.
As to `C1CCC(CC2CCC(NC3=NCCO3)CC2)CC1` (configuration not stated), the GI50 is 18.4 µM (inactive) in the test with SK-MEL-2; 18.1 µM (inactive) in the test on SK-MEL-28; 18 µM (inactive) in the test with U-251; 20.9 µM (inactive) in the test on SK-OV-3; 26 µM (inactive) with A498; 16.1 µM (inactive) with LOX IMVI. For the same compound, the GI50 in the test with Hs-578T is 16.3 µM (inactive); in the test on CCRF-CEM, 26.1 µM (inactive); with HOP-62, 20.6 µM (inactive); with T47D it was 24.4 µM (inactive); in the test on SN12C, 19.8 µM (inactive); with MCF7, 17.5 µM (inactive). Further, the GI50 is 21.6 µM (inactive) in the test on MOLT-4; 21.3 µM (inactive) with SW-620; 32.8 µM (inactive) in the test on A549; 22.1 µM (inactive) with EKVX; 18.2 µM (inactive) in the test with SNB-75; 19.4 µM (inactive) in the test on NCI/ADR-RES. Also, in the test with HT-29, the GI50 was 3.93 µM (inactive).
In the case of `O=[N+]([O-])/C=C/COCc1cc2c(cc1Br)OCO2`, the GI50 in the test on SK-MEL-28 is 11.6 µM (inactive); in the test with U-251, 17 µM (inactive); in the test with SK-OV-3 it was 43.1 µM (inactive); in the test with A498 it was 27.6 µM (inactive); in the test on LOX IMVI, 33.8 µM (inactive); in the test with Hs-578T, 23.6 µM (inactive). For the same compound, the GI50 in the test with CCRF-CEM is 1.15 µM (inactive); in the test with HOP-62 it was 20.1 µM (inactive); in the test on T47D, 16.7 µM (inactive); with SN12C, 18.6 µM (inactive); in the test with MCF7 it was 17.2 µM (inactive); in the test with MOLT-4, 48.3 µM (inactive). The GI50 in the test on SW-620 was 16 µM (inactive); with A549, 21.7 µM (inactive); in the test on EKVX it was 20.1 µM (inactive); in the test on SNB-75, 17.4 µM (inactive); in the test with NCI/ADR-RES it was 21.1 µM (inactive); in the test on HT-29 it was 20.8 µM (inactive).
